The structures appear in SMILES notation. pIC50: −log10 of the molar value. Like-named read-outs stand apart in the source and are kept apart here.

In one experiment the target is PYR1-HAB1 (Arabidopsis thaliana (Mouse-ear cress), UniProt O49686). The experiment is described as follows: PP2C activity assay, PYR1-HAB1. Conditions: 100 nM PP2C, 200 nM PYR/PYL protein, 4-nitrophenyl phosphate substrate; read-out: IC50 of inhibition of PYR1-HAB1. The class given is biochemical. From the text:
(§1) The protein HAB1, a type 2 protein phosphatase (PP2C), is inhibited by PYR/PYL proteins in dependence of abscisic acid or other receptor agonists. The potency of a receptor agonists correlates with the level of inhibition of the PP2C, and therefore the IC50 (PYR1-HAB1) can be used to compare the relative activity of different chemical analogues. Since inhibition of PP2C correlates to inhibition of seed-germination and increase in plant water-use efficiency, it serves as a powerful tool to quantify biological potential of a chemical acting as an analogue of abscisic acid.
(§2) HAB1 and PYL proteins were expressed and purified as described in Park et al. ((2009) Science 324(5930):1068-1071), with minor modifications. To obtain GST-HAB1, the HAB1 cDNA was cloned into pGex-2T. Expression was conducted in BL21[DE3]pLysS host cells. Transformed cells were pre-cultured overnight, transferred to LB medium and cultured at 30° C. to culture A600 of ˜0.5.
(§3) The culture was then cooled on ice and MnCl2 added to 4 mM and IPTG added to 0.3 mM. After 16 hours incubation at 15° C., cells were harvested and recombinant proteins were purified on glutathione agarose as described in Park et al. To obtain 6×His-PYL receptor fusion proteins, expression constructs previously described by Okamoto et al. 2013, (PNAS 110(29): 12132-12137) were used. ABA receptors were expressed and purified as described above.
(§4) For the values shown in Table B5, PP2C activity assays using recombinant receptors and PP2Cs were carried out as follows: purified proteins were pre-incubated in 160 μl assay buffer containing 100 mM Tris-HCl-pH7.9, 100 mM NaCl, 3 μg bovine serum albumin, 0.1% 2-mercaptoethanol, 1 mM MnCl2 with ABA or agonists (compounds of the present invention) for 30 minutes at room temperature. Reactions were started by adding 40 μL of a reaction solution containing 25 mM 4-nitrophenyl phosphate in assay buffer after which absorbance measurements were immediately collected using a 405 nm on Wallac plate reader. Reactions contained 100 nM PP2C and 200 nM PYR/PYL proteins. […] For inferring IC50 values, calculations from receptor/PP2C assays containing different concentrations (ranging from 1 μM to 4 nM) were. The obtained dose response data was fit to a log (inhibitor) versus response-(variable slope) model using non-linear regression to infer the IC50s, using Graph Pad Prism 6.0.

The subject of experiment [1] is soybean plants (variety S20-G7). The experiment is described as follows: Water use (WU) of soybean plants after foliar spray. The class given is in vivo. The following applies: for Total % WU 0 to 2 DAA: cumulative; for change in vivo at 100 µM / change in vivo at 500 µM: Glycine max, vs negative control; for change in vivo at 100 µM / Total 0 to 2 DAA / change in vivo at 500 µM: foliar spray; for Total 0 to 2 DAA: cumulative WU vs negative control. The protocol:
Chemicals were tested for their effect on reducing plant water use (WU) after being applied by foliar sprays onto soybean plants (variety S20-G7)—grown in controlled environment plant growth chambers. All chemicals were applied using an emulsifiable concentrate (EC) formulation that was diluted with water containing additional surfactant (EXTRAVON 1 g/20 L) to the indicated concentrations. Plant WU was assessed by multiple pot weighing processes before and after application of the chemicals at the indicated times (expressed in days after application (DAA)). The WU data before application was used to correct for differences in water use due to non-treatment effects (e.g. due to differences in plant size). The results are expressed compared to negative control treatment (water with EXTRAVON 1 g/20 L).
Application of the chemicals (0 DAA) takes place approximately between 8 to 9:30 a.m. […] The cumulative total WU (0-2 DAA) is calculated by summing the WU data mentioned above.

Experiment [2] concerns corn plants (variety NK OCTET). Description: Water use (WU) of corn plants after foliar spray. The class given is in vivo. Conditions: foliar spray at 500 μM, vs negative control; for Total % WU 0 to 2 DAA: cumulative. Here is the method:
Compounds were tested for their effect on reducing plant water use as follows. The compounds were applied by foliar spray to 12 day old corn plants (variety NK OCTET) grown in controlled environment plant growth chambers. All compounds were applied using an emulsifiable concentrate (EC) formulation that was diluted to the desired concentrations with water containing 0.4% of the adjuvant rape seed methyl ester. Plant water use during the day was assessed by repeated weighing of the pots in which the plants were grown before and after application of the compounds at the indicated times (expressed in days after application (DAA)). The water use data before application was used to correct any differences in water use arising due to non-treatment effects (e.g. due to differences in plant size). The untransformed water use values were subjected to an analysis of covariance, fitting the effect of treatment and using the baseline water use 1 day before application as a covariate. Application of the chemicals (0 DAA) takes place approximately between 8 to 9:30 a.m. WU is measured within day time (chamber light is on 6:00 to 20:00) at these timepoints: 0 DAA AM (10:30-12:50) and 0 DAA PM (14:00-19:50), 1 DAA AM (7:30-12:50) and 1 DAA PM (14:00-19:50) and 2 DAA AM (7:30-12:50). The cumulative total WU (0-2 DAA) is calculated by summing the WU data mentioned above.

A further experiment has as its target PYL2-HAB1 (Arabidopsis thaliana (Mouse-ear cress), UniProt O80992). Description: PP2C activity assay, PYL2-HAB1. It is filed as biochemical. Conditions: 100 nM PP2C, 200 nM PYR/PYL protein, 4-nitrophenyl phosphate substrate; read-out: IC50 of inhibition of PYL2-HAB1.
Excerpt: as §1, §2, §3, §4

The test system of experiment [3] is corn plants (variety NK OCTET). Description: Water use (WU) of corn plants after foliar spray. The class given is in vivo. Conditions: foliar spray at 500 μM, vs negative control.
Where [4] appears, read: repeated experiment (Table B2), rate not given.
Where [5] appears, read: 0 h, application rate 100 μM, read-out: % WU 0 DAA AM.
[6] abbreviates: 0 h, application rate 100 μM, read-out: % WU 0 DAA PM.
Where [7] appears, read: 24 h, application rate 100 μM, read-out: % WU 1 DAA AM.
Where [8] appears, read: 24 h, application rate 100 μM, read-out: % WU 1 DAA PM.
[9] abbreviates: 48 h, application rate 100 μM, read-out: % WU 2 DAA AM.

Sequence of PYL2-HAB1 (O80992 whole entry, looked up): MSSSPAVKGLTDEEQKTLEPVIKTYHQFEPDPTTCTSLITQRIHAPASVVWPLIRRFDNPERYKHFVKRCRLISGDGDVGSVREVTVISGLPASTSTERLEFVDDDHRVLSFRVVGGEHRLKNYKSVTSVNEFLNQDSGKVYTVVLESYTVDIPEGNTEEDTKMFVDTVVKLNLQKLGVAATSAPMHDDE
Sequence of PYL2-HAB1 (Q9CAJ0 whole entry partner, looked up): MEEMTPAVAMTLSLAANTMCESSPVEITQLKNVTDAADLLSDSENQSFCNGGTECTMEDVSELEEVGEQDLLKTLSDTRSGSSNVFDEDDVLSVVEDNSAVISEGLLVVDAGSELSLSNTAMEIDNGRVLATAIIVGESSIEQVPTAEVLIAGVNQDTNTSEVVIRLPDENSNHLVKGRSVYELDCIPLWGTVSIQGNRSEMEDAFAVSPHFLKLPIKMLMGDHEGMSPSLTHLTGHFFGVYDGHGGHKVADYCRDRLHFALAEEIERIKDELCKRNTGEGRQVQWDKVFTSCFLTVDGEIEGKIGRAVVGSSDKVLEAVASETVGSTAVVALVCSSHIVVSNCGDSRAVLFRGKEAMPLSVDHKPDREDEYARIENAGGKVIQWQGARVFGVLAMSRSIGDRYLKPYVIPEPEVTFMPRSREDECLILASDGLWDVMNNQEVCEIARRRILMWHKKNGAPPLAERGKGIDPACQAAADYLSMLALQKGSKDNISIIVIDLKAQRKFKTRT
Sequence of PYR1-HAB1 (O49686 whole entry, looked up): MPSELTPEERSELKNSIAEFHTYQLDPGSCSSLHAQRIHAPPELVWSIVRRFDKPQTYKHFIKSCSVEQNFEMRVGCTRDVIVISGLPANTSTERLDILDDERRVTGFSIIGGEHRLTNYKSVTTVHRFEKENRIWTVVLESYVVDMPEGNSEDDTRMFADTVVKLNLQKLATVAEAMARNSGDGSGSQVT
Sequence of PYR1-HAB1 (Q9CAJ0 whole entry partner, looked up): as the sequence (Q9CAJ0 whole entry partner, looked up) above

As for `CCCN1C(=O)CCc2cc(NS(=O)(=O)Cc3ccc(C4CC4)cc3)ccc21` [Compound 1.004, 1-(4-cyclopropylphenyl)-N-(2-oxo-1-propyl-3,4-dihydroquinolin-6-yl)methanesulfonamide], at PYR1-HAB1, the pIC50 was 7.29. Also, in experiment [1] (setting [4]), the “% WU 2 DAA PM” value is reported as −12.9% and the “Total % WU 0 to 2 DAA” value is listed as −25%. In experiment [2], the “Total % WU 0 to 2 DAA” value is −11.8%, the “% WU 0 DAA AM” value is reported as −17.9%, the “% WU 0 DAA PM” value was −12.4% and the “% WU 1 DAA AM” value is given as −12.4%. Besides, in experiment [2], the “% WU 1 DAA PM” value is on record as −12.1% and the “% WU 2 DAA AM” value is reported as −9.8%. The pIC50 at PYL2-HAB1 is 6.75. Also, the “% WU 2 DAA PM” value in experiment [3] is recorded as −10.2%.

On to `CCCN1C(=O)CCc2cc(NS(=O)(=O)Cc3ccc(C4CC4)cc3)cc(Cl)c21` [Compound 1.025, N-(8-chloro-2-oxo-1-propyl-3,4-dihydroquinolin-6-yl)-1-(4-cyclopropylphenyl)methanesulfonamide], for which the negative-log IC50 (pIC50) on PYR1-HAB1 was 7.08. For the same molecule, in experiment [1] (setting [4]), the “% WU 2 DAA PM” value is reported as −13.6% and the “Total % WU 0 to 2 DAA” value is −22.1%. In addition, at PYL2-HAB1, the pIC50 is 6.94.

As to `CCN1C(=O)CC(C)c2cc(NS(=O)(=O)Cc3ccc(C4CC4)cc3)ccc21` (stereo not shown) [Compound 1.178, 1-(4-cyclopropylphenyl)-N-(1-ethyl-4-methyl-2-oxo-3,4-dihydroquinolin-6-yl)methanesulfonamide], in experiment [1] (setting [4]), the “% WU 2 DAA PM” value is recorded as −36.5% and the “Total % WU 0 to 2 DAA” value is reported as −45.4%. For the same molecule, in experiment [2], the “Total % WU 0 to 2 DAA” value was −9.7%, the “% WU 0 DAA AM” value was −18.5%, the “% WU 0 DAA PM” value is −13% and the “% WU 1 DAA AM” value is −11.2%. In experiment [2], the “% WU 1 DAA PM” value is recorded as −9.2% and the “% WU 2 DAA AM” value is −6.5%. The “% WU 2 DAA PM” value in experiment [3] is −5.8%.

For `CCCN1C(=O)CC(C)c2cc(NS(=O)(=O)Cc3ccc(C4CC4)cc3)ccc21` (stereo not shown) [Compound 1.179], the pIC50 was 7.09 at PYR1-HAB1 and 7.19 on PYL2-HAB1.

`CCCN1C(=O)CCc2cc(NS(=O)(=O)Cc3ccc(C4CC4)cc3)cc(F)c21` [Compound 1.214, 1-(4-cyclopropylphenyl)-N-(8-fluoro-2-oxo-1-propyl-3,4-dihydroquinolin-6-yl)methanesulfonamide]: the figures for the pIC50 on PYR1-HAB1 and on PYL2-HAB1 were 7.55 and 6.89, respectively.

Take `CCCN1C(=O)CCc2cc(NS(=O)(=O)Cc3ccc(C4CCC4)cc3)ccc21` [Compound 5.004, 1-(4-cyclobutylphenyl)-N-(2-oxo-1-propyl-3,4-dihydroquinolin-6-yl)methanesulfonamide]: in experiment [1] (setting [4]), the “% WU 2 DAA PM” value is 3.9% and the “Total % WU 0 to 2 DAA” value was −3%. Besides, in experiment [2], the “Total % WU 0 to 2 DAA” value is −4.9%, the “% WU 0 DAA AM” value is listed as −8.9%, the “% WU 0 DAA PM” value is −8.8% and the “% WU 1 DAA AM” value is −5.6%. In addition, in experiment [2], the “% WU 1 DAA PM” value is listed as −5.9% and the “% WU 2 DAA AM” value was −1.7%. For the same molecule, in experiment [3], the “% WU 2 DAA PM” value is given as −2.3%.

In the case of `CCCN1C(=O)CCc2cc(NS(=O)(=O)Cc3ccc(C4CC(=O)C4(C)C)cc3)ccc21` (stereo not shown) [Compound 8.004, 1-[4-(2,2-dimethyl-3-oxo-cyclobutyl)phenyl]-N-(2-oxo-1-propyl-3,4-dihydroquinolin-6-yl)methanesulfonamide], in experiment [1] (setting [4]), the “% WU 2 DAA PM” value is given as 1% and the “Total % WU 0 to 2 DAA” value is recorded as −0.7%.

For the molecule `CCCN1C(=O)CCc2cc(NS(=O)(=O)Cc3ccc(C4CCCC4)cc3)ccc21` [Compound 9.004, 1-(4-cyclopentylphenyl)-N-(2-oxo-1-propyl-3,4-dihydroquinolin-6-yl)methanesulfonamide], the pIC50 on PYR1-HAB1 was 7.01. In experiment [1] (setting [4]), the “% WU 2 DAA PM” value is 0.5% and the “Total % WU 0 to 2 DAA” value is −1.4%. The pIC50 on PYL2-HAB1 was less than 6.00.

In the case of `CCCN1C(=O)CCc2cc(NS(=O)(=O)Cc3ccc(C)cc3)ccc21` [Quinabactin, quinabactin, reference compound], the negative-log IC50 (pIC50) at PYR1-HAB1 is 6.98. Moreover, in experiment [1] (setting [4]), the “% WU 0 DAA AM” value is recorded as −22%, the “% WU 0 DAA PM” value is recorded as −23%, the “% WU 1 DAA AM” value is listed as −17% and the “% WU 1 DAA PM” value was −15%. For the same molecule, in experiment [1] (setting [4]), the “% WU 2 DAA AM” value is recorded as −12%, the “% WU 2 DAA PM” value is reported as −11% and the “Total % WU 0 to 2 DAA” value is listed as −16%. On PYL2-HAB1, the pIC50 is 6.58.

For the molecule `CCCN1C(=O)CCc2cc(NS(=O)(=O)Cc3ccc(C)cc3)ccc21` [drawing 25, reference compound], the change in vivo at 100 µM was -1.3% in experiment [1] (setting [5]); -0.7% in experiment [1] (setting [6]); -2.2% in experiment [1] (setting [7]); -0.2% in experiment [1] (setting [8]); -3.4% in experiment [1] (setting [9]). In addition, in experiment [1] (application rate 100 μM), the “Total 0 to 2 DAA” value was −2.0%.

Regarding `CCCN1C(=O)CCc2cc(NS(=O)(=O)Cc3ccc(C4CC4)cc3)ccc21` [drawing 26], the change in vivo at 100 µM in experiment [1] (setting [5]) is -0.8%; in experiment [1] (setting [6]), -3.8%; in experiment [1] (setting [7]), -3%; in experiment [1] (setting [8]), -2.8%; in experiment [1] (setting [9]), -5.2%. In experiment [1] (application rate 100 μM), the “Total 0 to 2 DAA” value is given as −3.8%.

Consider `CCCN1C(=O)CCc2cc(NS(=O)(=O)Cc3ccc(C4CC4)cc3)ccc21` [drawing 27], for which the change in vivo at 500 µM is -8.8% in experiment [1] (0 h, application rate 500 μM, read-out: % WU 0 DAA AM); -10.7% in experiment [1] (0 h, application rate 500 μM, read-out: % WU 0 DAA PM); -9.4% in experiment [1] (24 h, application rate 500 μM, read-out: % WU 1 DAA AM); -6.4% in experiment [1] (24 h, application rate 500 μM, read-out: % WU 1 DAA PM); -6.1% in experiment [1] (48 h, application rate 500 μM, read-out: % WU 2 DAA AM). Further, the “Total 0 to 2 DAA” value in experiment [1] (application rate 500 μM) is given as −8.9%.

Broadly, the pIC50 is −log10 of the IC50, conventionally taken in molar units.

(Values after patent US10167261B2, “2-oxo-3,4-dihydroquinolin-6-yl sulphonamide CPDS and their use as plant growth regulators” (THE REGENTS OF THE UNIVERSITY OF CALIFORNIA, priority 2014, dated 2019).)
